According to PubChem BioAssay (NCI):
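Results reflect a 48-hour exposure of cells in 96-well plates to compound at five concentrations. GI50 marks 50% less growth. At the TGI there is no net growth.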

How the values were obtained:
Assay in all cases: NCI tumour cell line growth inhibition, 48 h
SK-MEL-2 melanoma = tested on: SK-MEL-2 melanoma
SF-268 CNS = tested on: SF-268 CNS
CAKI-1 renal = tested on: CAKI-1 renal
SF-539 CNS = tested on: SF-539 CNS
PC-3 prostate = tested on: PC-3 prostate
HCT-15 colon = tested on: HCT-15 colon
K-562 leukemia = tested on: K-562 leukemia
UACC-257 melanoma = tested on: UACC-257 melanoma
OVCAR-5 ovarian = tested on: OVCAR-5 ovarian
NCI-H460 lung = tested on: NCI-H460 lung
UACC-62 melanoma = tested on: UACC-62 melanoma
LOX IMVI melanoma = tested on: LOX IMVI melanoma
NCI-H522 lung = tested on: NCI-H522 lung
U251 CNS = tested on: U251 CNS
SN12C renal = tested on: SN12C renal
DU-145 prostate = tested on: DU-145 prostate
SK-OV-3 ovarian = tested on: SK-OV-3 ovarian
HOP-62 NSCLC = tested on: HOP-62 NSCLC
UO-31 renal = tested on: UO-31 renal
SNB-75 CNS = tested on: SNB-75 CNS
T-47D breast = tested on: T-47D breast
COLO 205 colon = tested on: COLO 205 colon
SNB-19 CNS = tested on: SNB-19 CNS
HS 578T breast = tested on: HS 578T breast
HL-60(TB) leukemia = tested on: HL-60(TB) leukemia
MCF7 breast = tested on: MCF7 breast
HCT-116 colon = tested on: HCT-116 colon
SF-295 CNS = tested on: SF-295 CNS
RXF 393 renal = tested on: RXF 393 renal
MALME-3M melanoma = tested on: MALME-3M melanoma
MDA-MB-231 breast = tested on: MDA-MB-231 breast
MDA-MB-435 = tested on: MDA-MB-435
SW-620 colon = tested on: SW-620 colon
CCRF-CEM leukemia = tested on: CCRF-CEM leukemia
KM12 colon = tested on: KM12 colon
SR leukemia = tested on: SR leukemia
OVCAR-4 ovarian = tested on: OVCAR-4 ovarian
A549 NSCLC = tested on: A549 NSCLC
RPMI-8226 leukemia = tested on: RPMI-8226 leukemia
NCI/ADR-RES ovarian = tested on: NCI/ADR-RES ovarian
BT-549 breast = tested on: BT-549 breast
ACHN renal = tested on: ACHN renal
HCC-2998 colon = tested on: HCC-2998 colon
NCI-H226 lung = tested on: NCI-H226 lung
SK-MEL-5 melanoma = tested on: SK-MEL-5 melanoma
SK-MEL-28 melanoma = tested on: SK-MEL-28 melanoma
A498 renal = tested on: A498 renal
786-0 renal = tested on: 786-0 renal
M14 melanoma = tested on: M14 melanoma
HT29 colon = tested on: HT29 colon
NCI-H23 lung = tested on: NCI-H23 lung
EKVX NSCLC = tested on: EKVX NSCLC
IGROV1 ovarian = tested on: IGROV1 ovarian
OVCAR-3 ovarian = tested on: OVCAR-3 ovarian
TK-10 renal = tested on: TK-10 renal
OVCAR-8 ovarian = tested on: OVCAR-8 ovarian
MOLT-4 leukemia = tested on: MOLT-4 leukemia

Compound: CN(C)CCn1c(CO)nc2c1c(=O)n(C)c(=O)n2C
- TGI (SK-MEL-2 melanoma): > 100 µM
- TGI (SF-268 CNS): > 100 µM
- TGI (CAKI-1 renal): > 100 µM
- TGI (SF-539 CNS): > 100 µM
- TGI (PC-3 prostate): > 100 µM
- TGI (HCT-15 colon): > 100 µM
- TGI (K-562 leukemia): > 100 µM
- TGI (UACC-257 melanoma): > 100 µM
- TGI (OVCAR-5 ovarian): > 100 µM
- TGI (NCI-H460 lung): > 100 µM
- TGI (UACC-62 melanoma): > 100 µM
- TGI (LOX IMVI melanoma): > 100 µM
- TGI (NCI-H522 lung): > 100 µM
- TGI (U251 CNS): > 100 µM
- TGI (SN12C renal): > 100 µM
- TGI (DU-145 prostate): > 100 µM
- TGI (SK-OV-3 ovarian): > 100 µM
- TGI (HOP-62 NSCLC): > 100 µM
- TGI (UO-31 renal): > 100 µM
- TGI (SNB-75 CNS): > 100 µM
- TGI (T-47D breast): > 100 µM
- TGI (COLO 205 colon): > 100 µM
- TGI (SNB-19 CNS): > 100 µM
- TGI (HS 578T breast): > 100 µM
- TGI (HL-60(TB) leukemia): > 100 µM
- TGI (MCF7 breast): > 100 µM
- TGI (HCT-116 colon): > 100 µM
- TGI (SF-295 CNS): > 100 µM
- TGI (RXF 393 renal): > 100 µM
- TGI (MALME-3M melanoma): > 100 µM
- TGI (MDA-MB-231 breast): > 100 µM
- TGI (MDA-MB-435): > 100 µM
- TGI (SW-620 colon): > 100 µM
- TGI (CCRF-CEM leukemia): > 100 µM
- TGI (KM12 colon): > 100 µM
- TGI (SR leukemia): > 100 µM
- TGI (OVCAR-4 ovarian): > 100 µM
- TGI (A549 NSCLC): > 100 µM
- TGI (RPMI-8226 leukemia): > 100 µM
- TGI (NCI/ADR-RES ovarian): > 100 µM
- TGI (BT-549 breast): > 100 µM
- TGI (ACHN renal): > 100 µM
- TGI (HCC-2998 colon): > 100 µM
- TGI (NCI-H226 lung): > 100 µM
- TGI (SK-MEL-5 melanoma): > 100 µM
- TGI (SK-MEL-28 melanoma): > 100 µM
- TGI (A498 renal): > 100 µM
- TGI (786-0 renal): > 100 µM
- TGI (M14 melanoma): > 100 µM
- TGI (HT29 colon): > 100 µM
- TGI (NCI-H23 lung): > 100 µM
- TGI (EKVX NSCLC): > 100 µM
- TGI (IGROV1 ovarian): > 100 µM
- TGI (OVCAR-3 ovarian): > 100 µM
- TGI (TK-10 renal): > 100 µM
- TGI (OVCAR-8 ovarian): > 100 µM

Compound: COc1cc2c(cc1OC)C(=O)/C(=C/c1cc(-c3ccc4c(c3)OCO4)n[nH]1)C2
- GI50 (SF-268 CNS): 1.63 µM
- TGI (SF-268 CNS): 3.37 µM
- GI50 (CAKI-1 renal): 1.5 µM
- TGI (CAKI-1 renal): 3 µM
- GI50 (SF-539 CNS): 1.27 µM
- TGI (SF-539 CNS): 2.57 µM
- GI50 (PC-3 prostate): 1.29 µM
- TGI (PC-3 prostate): 2.92 µM
- GI50 (HCT-15 colon): 1.12 µM
- TGI (HCT-15 colon): 2.81 µM
- GI50 (K-562 leukemia): 1.59 µM
- TGI (K-562 leukemia): > 100 µM
- GI50 (UACC-257 melanoma): 1.71 µM
- TGI (UACC-257 melanoma): 3.13 µM
- GI50 (OVCAR-5 ovarian): 1.56 µM
- TGI (OVCAR-5 ovarian): 3 µM
- GI50 (NCI-H460 lung): 1.68 µM
- TGI (NCI-H460 lung): 3.79 µM
- GI50 (UACC-62 melanoma): 1.63 µM
- TGI (UACC-62 melanoma): 3.04 µM
- GI50 (NCI-H522 lung): 0.258 µM
- TGI (NCI-H522 lung): 0.871 µM
- GI50 (U251 CNS): 1.09 µM
- TGI (U251 CNS): 2.31 µM
- GI50 (SN12C renal): 1.59 µM
- TGI (SN12C renal): 2.99 µM
- GI50 (DU-145 prostate): 1.45 µM
- TGI (DU-145 prostate): 2.86 µM
- GI50 (SK-OV-3 ovarian): 2.89 µM
- TGI (SK-OV-3 ovarian): 7.16 µM
- GI50 (HOP-62 NSCLC): 1.53 µM
- TGI (HOP-62 NSCLC): 2.96 µM
- GI50 (UO-31 renal): 1.29 µM
- TGI (UO-31 renal): 2.67 µM
- GI50 (SNB-75 CNS): 1.65 µM
- TGI (SNB-75 CNS): 3.02 µM
- GI50 (T-47D breast): 1.31 µM
- TGI (T-47D breast): 2.72 µM
- GI50 (COLO 205 colon): 1.7 µM
- TGI (COLO 205 colon): 3.11 µM
- GI50 (SNB-19 CNS): 1.55 µM
- TGI (SNB-19 CNS): 2.96 µM
- GI50 (MOLT-4 leukemia): 2.57 µM
- TGI (MOLT-4 leukemia): 6.97 µM
- GI50 (HS 578T breast): 2.61 µM
- TGI (HS 578T breast): 8.08 µM
- GI50 (HL-60(TB) leukemia): 2.07 µM
- TGI (HL-60(TB) leukemia): 5.59 µM
- GI50 (MCF7 breast): 0.339 µM
- TGI (MCF7 breast): 1.42 µM
- GI50 (HCT-116 colon): 1.03 µM
- TGI (HCT-116 colon): 2.55 µM
- GI50 (SF-295 CNS): 1.64 µM
- TGI (SF-295 CNS): 3.26 µM
- GI50 (RXF 393 renal): 1.54 µM
- TGI (RXF 393 renal): 3.19 µM
- GI50 (MALME-3M melanoma): 1.74 µM
- TGI (MALME-3M melanoma): 3.6 µM
- GI50 (MDA-MB-231 breast): 1.66 µM
- TGI (MDA-MB-231 breast): 3.2 µM
- GI50 (MDA-MB-435): 1.73 µM
- TGI (MDA-MB-435): 3.27 µM
- GI50 (SW-620 colon): 1.35 µM
- TGI (SW-620 colon): 3.47 µM
- GI50 (CCRF-CEM leukemia): 1.14 µM
- TGI (CCRF-CEM leukemia): 3.61 µM
- GI50 (KM12 colon): 1.29 µM
- TGI (KM12 colon): 2.73 µM
- GI50 (SR leukemia): 0.627 µM
- TGI (SR leukemia): 4.11 µM
- GI50 (OVCAR-4 ovarian): 1.11 µM
- TGI (OVCAR-4 ovarian): 2.36 µM
- GI50 (A549 NSCLC): 1.96 µM
- TGI (A549 NSCLC): 5.45 µM
- GI50 (RPMI-8226 leukemia): 0.233 µM
- TGI (RPMI-8226 leukemia): 0.623 µM
- GI50 (NCI/ADR-RES ovarian): 2.25 µM
- TGI (NCI/ADR-RES ovarian): 6.87 µM
- GI50 (BT-549 breast): 1.62 µM
- TGI (BT-549 breast): 3.04 µM
- GI50 (ACHN renal): 1.73 µM
- TGI (ACHN renal): 3.23 µM
- GI50 (HCC-2998 colon): 1.88 µM
- TGI (HCC-2998 colon): 3.44 µM
- GI50 (SK-MEL-5 melanoma): 1.67 µM
- TGI (SK-MEL-5 melanoma): 3.06 µM
- GI50 (SK-MEL-28 melanoma): 1.89 µM
- TGI (SK-MEL-28 melanoma): 3.4 µM
- GI50 (A498 renal): 1.33 µM
- TGI (A498 renal): 2.83 µM
- GI50 (786-0 renal): 1.61 µM
- TGI (786-0 renal): 2.99 µM
- GI50 (M14 melanoma): 1.82 µM
- TGI (M14 melanoma): 3.4 µM
- GI50 (HT29 colon): 1.45 µM
- TGI (HT29 colon): 3.09 µM
- GI50 (NCI-H23 lung): 1.87 µM
- TGI (NCI-H23 lung): 3.91 µM
- GI50 (IGROV1 ovarian): 1.89 µM
- TGI (IGROV1 ovarian): 4.58 µM
- GI50 (OVCAR-3 ovarian): 1.41 µM
- TGI (OVCAR-3 ovarian): 2.8 µM
- GI50 (TK-10 renal): 1.89 µM
- TGI (TK-10 renal): 3.36 µM
- GI50 (OVCAR-8 ovarian): 1.57 µM
- TGI (OVCAR-8 ovarian): 3.05 µM
